Laboratory results published in ChEMBL document CHEMBL3120091, “Microwave-assisted synthesis and myorelaxant activity of 9-indolyl-1,8-acridinedione derivatives” (2014).
Activity calls are given as the source filed them. No cut-off for these calls is given here.

What was measured:
Stomach [1] = assay: Myorelaxant activity in New Zealand white rabbit gastric fundus smooth muscle assessed as relaxation of noradrenaline-induced contraction in presence of glibenclamide; type: functional, tissue-based; details: Oryctolagus cuniculus
Stomach [2] = assay: Myorelaxant activity in New Zealand white rabbit gastric fundus smooth muscle assessed as relaxation of noradrenaline-induced contraction in presence of tetraethylammonium chloride; type: functional, tissue-based; details: Oryctolagus cuniculus
Stomach [3] = assay: Myorelaxant activity in New Zealand white rabbit gastric fundus smooth muscle assessed as relaxation of noradrenaline-induced contraction at 3 x 10^-4 M relative to control; type: functional; details: Oryctolagus cuniculus
Stomach [4] = assay: Myorelaxant activity in New Zealand white rabbit gastric fundus smooth muscle assessed as relaxation of noradrenaline-induced contraction; type: functional, Oryctolagus cuniculus
Stomach [5] = assay: Myorelaxant activity in New Zealand white rabbit gastric fundus smooth muscle assessed as relaxation of noradrenaline-induced contraction in presence of propranolol; type: functional, tissue-based; details: Oryctolagus cuniculus
Stomach [6] = assay: Myorelaxant activity in New Zealand white rabbit gastric fundus smooth muscle assessed as relaxation of noradrenaline-induced contraction in presence of indomethacin; type: functional, tissue-based; details: Oryctolagus cuniculus
Stomach [7] = assay: Myorelaxant activity in New Zealand white rabbit gastric fundus smooth muscle assessed as relaxation of noradrenaline-induced contraction in presence of L-NAME; type: functional, tissue-based; details: Oryctolagus cuniculus

SMILES | Activity (Stomach [1]) | Activity (Stomach [2]) | Emax at 300 µM (Stomach [3]) [%] | pD2 (Stomach [4]) | Activity (Stomach [5]) | Activity (Stomach [6]) | Emax (Stomach [3]) | Activity (Stomach [7]) | pD2 (Stomach [4]; Oryctolagus cuniculus)
Cn1c(C2C3=C(CCC(C)(C)C3=O)NC3=C2C(=O)C(C)(C)CC3)cc2ccccc21 | Active | Active | 11.6 | 4.6 |  |  |  |  | 
O=C1CCCC2=C1C(c1c[nH]c3ccc(Br)cc13)C1=C(CCCC1=O)N2 |  |  |  |  | Active | Active | inactive | Active | inactive
Cn1c(C2C3=C(CC(C)(C)CC3=O)NC3=C2C(=O)CC(C)(C)C3)cc2ccccc21 | Active | Active | 34 | 4.1 |  |  |  |  | 
Cn1cc(C2C3=C(CCCC3=O)NC3=C2C(=O)CCC3)c2ccccc21 |  |  |  |  | Active | Active | inactive | Active | inactive
CC1(C)CC(=O)C2=C(C1)NC1=C(C(=O)CC(C)(C)C1)C2c1c[nH]c2ccc(Br)cc12 | Active | Active | 71.5 | 3.85 |  |  |  |  | 
O=C1CCCC2=C1C(c1c[nH]c3cc(Br)ccc13)C1=C(CCCC1=O)N2 |  |  |  |  | Active | Active | inactive | Active | inactive
Cn1cc(C2C3=C(CCC(C)(C)C3=O)NC3=C2C(=O)C(C)(C)CC3)c2ccccc21 |  |  |  |  | Active | Active | inactive | Active | inactive
Cn1cc(C2C3=C(CC(C)(C)CC3=O)NC3=C2C(=O)CC(C)(C)C3)c2ccccc21 | Active | Active | 28.6 | 4.28 |  |  |  |  | 
CC1(C)CC(=O)C2=C(C1)NC1=C(C(=O)CC(C)(C)C1)C2c1c[nH]c2cc(Br)ccc12 | Active | Active | 52.7 | 4.25 |  |  |  |  | 
CC1(C)CCC2=C(C1=O)C(c1c[nH]c3ccc(Br)cc13)C1=C(CCC(C)(C)C1=O)N2 | Active | Active | 17.5 | 4.46 |  |  |  |  | 
CC(N/C(=N\C#N)Nc1ccncc1)C(C)(C)C (stereo not given) [PINACIDIL ANHYDROUS] |  |  | 63.8 | 3.9 |  |  |  |  | 
CC1(C)CCC2=C(C1=O)C(c1c[nH]c3cc(Br)ccc13)C1=C(CCC(C)(C)C1=O)N2 | Active | Active | 12 | 4.54 |  |  |  |  | 
Cn1c(C2C3=C(CCCC3=O)NC3=C2C(=O)CCC3)cc2ccccc21 |  |  |  |  | Active | Active | inactive | Active | inactive
